The record followed here is patent publication US7105620B2, “3,4-alkylenedioxy-thiophene copolymers” (Agfa Gevaert, priority 2001, dated 2006).

Converted amounts (≈) assume the structure as drawn.

One data set is described as follows: Solubility of 3,4-alkylenedioxythiophene compounds in water at 25° C. Type of data set: physicochemical. As to conditions: thermodynamic from solid, visually adjudged dissolved. As to the method:
The solubility of the 3,4-alkylenedioxythiophene compounds was determined by adding a particular quantity thereof with stirring to sufficient water so that all the monomer was visually adjudged to have dissolved.
`OCC1COc2cscc2O1` (stereo not drawn) [M1, (2,3-dihydro-thieno[3,4-b][1,4]dioxin-2-yl)-methanol] gave a solubility of approximately 10000 µg/mL (≈ 58.1 mM).

In turn, `OC1COc2cscc2OC1` [M2, 3,4-dihydro-2H-thieno[3,4-b][1,4]dioxepin-3-ol] showed a solubility of approximately 8200 µg/mL (≈ 47.6 mM).

In the case of `O=C(O)COCC1COc2cscc2O1` (stereo not drawn) [M3, (2,3-dihydro-thieno[3,4-b][1,4]dioxin-2-yl-methoxy)-acetic acid], the solubility is approximately 2700 µg/mL (≈ 11.7 mM).

In turn, `COCCOCCOCCOCC1COc2cscc2O1` (stereo not drawn) [M4, 2-{2-[2-(2-methoxy-ethoxy)-ethoxy]-ethoxymethyl}-2,3-dihydro-thieno[3,4-b][1,4]dioxine] gave a solubility of approximately 4500 µg/mL (≈ 14.1 mM).

With `O=S(=O)([O-])CCCCOCC1COc2cscc2O1.[Na+]` (stereo not drawn) [M6, 4-(2,3-dihydro-thieno[3,4-b][1,4]dioxin-2-ylmethoxy)-butane-1-sulfonic acid sodium salt], the solubility is approximately 167000 µg/mL.

Staying with this data set, now noted: visually adjudged dissolved.
For the molecule “Polyethylene Oxide Substituted (2,3-dihydro-thieno[3,4-b][1,4]dioxin-2-yl)-methanol [M5]”, the “Solubility in water at 25° C.” value is reported as “ca. >128 g/L”.
